US20240382483A1, “HETEROCYCLIC EGFR INHIBITORS FOR USE IN THE TREATMENT OF CANCER” (Blueprint Medicines Corporation, priority 2021, published 2024)
Read-outs that look alike come from different tables or passages of the source.

What was measured:
[1] = molecular target: T1, EGFR (L858R T790M C797S) (Homo sapiens, UniProt P00533, C797S/L858R/T790M); assay: Biochemical EGFR inhibition assay (Caliper mobility shift), EGFR LRTMCS; settings: LRTMCS (PH) IC50 (nM) @ 1 mM ATP (Num), EGFR LRTMCS mutant
T1 construct: purchased SignalChem E10-122VG
T1 sequence (P00533 25-1210 T790M/C797S/L858R): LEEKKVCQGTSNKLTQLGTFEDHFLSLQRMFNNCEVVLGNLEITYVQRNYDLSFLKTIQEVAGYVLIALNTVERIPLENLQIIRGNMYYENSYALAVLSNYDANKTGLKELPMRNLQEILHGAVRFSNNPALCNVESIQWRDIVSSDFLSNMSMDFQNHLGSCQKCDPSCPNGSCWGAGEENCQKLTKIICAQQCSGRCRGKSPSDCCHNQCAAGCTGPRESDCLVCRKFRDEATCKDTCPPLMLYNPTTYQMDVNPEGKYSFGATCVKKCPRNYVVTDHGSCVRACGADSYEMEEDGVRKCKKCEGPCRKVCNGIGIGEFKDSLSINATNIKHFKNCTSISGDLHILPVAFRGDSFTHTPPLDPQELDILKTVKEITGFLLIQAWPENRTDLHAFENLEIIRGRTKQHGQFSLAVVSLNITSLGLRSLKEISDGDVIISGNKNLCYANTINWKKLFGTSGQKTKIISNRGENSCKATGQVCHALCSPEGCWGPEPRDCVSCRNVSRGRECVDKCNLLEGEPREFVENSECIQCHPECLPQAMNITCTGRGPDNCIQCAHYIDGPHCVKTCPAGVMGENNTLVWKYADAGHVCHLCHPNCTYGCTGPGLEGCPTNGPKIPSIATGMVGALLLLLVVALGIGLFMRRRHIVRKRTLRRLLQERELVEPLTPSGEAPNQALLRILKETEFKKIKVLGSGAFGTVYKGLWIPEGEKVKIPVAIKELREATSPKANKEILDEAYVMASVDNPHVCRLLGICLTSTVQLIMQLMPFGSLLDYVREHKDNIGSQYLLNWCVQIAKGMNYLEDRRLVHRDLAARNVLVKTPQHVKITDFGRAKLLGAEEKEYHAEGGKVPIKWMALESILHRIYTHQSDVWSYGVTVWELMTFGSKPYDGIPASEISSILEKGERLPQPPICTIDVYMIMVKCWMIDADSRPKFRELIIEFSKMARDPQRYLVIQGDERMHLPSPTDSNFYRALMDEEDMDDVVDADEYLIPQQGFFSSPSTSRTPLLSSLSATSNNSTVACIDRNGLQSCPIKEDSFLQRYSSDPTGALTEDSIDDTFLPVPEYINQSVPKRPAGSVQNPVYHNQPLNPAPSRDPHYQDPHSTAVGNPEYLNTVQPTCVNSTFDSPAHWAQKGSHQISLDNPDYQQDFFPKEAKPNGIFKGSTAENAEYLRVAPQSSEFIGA
Protocol: Reactions proceeded until between 10% to 20% total peptides were phosphorylated at room temperature (25° C.) and were terminated with 35 mM 2,2′,2″,2′″-(ethane-1,2-diyldinitrilo)tetraacetic acid (EDTA). Product was detected using the Caliper mobility shift detection method where the phosphorylated peptide (product) and substrate were electrophoretically separated and measured. Percent activity was plotted against log concentration of compound and points to generate an apparent IC50.

[2] = molecular target: T2, intracellular phosphorylation of EGFR in NCI-H1975 cell line that harbors the EGFR L858R T790M mutations (Homo sapiens, UniProt P00533, L858R/T790M); assay: NCI-H1975 pEGFR AlphaLISA assay; type: cell-based; settings: NCI-H1975 cells (EGFR L858R T790M), p-EGFR (Tyr1068), 4-5 hours incubation
T2 construct: NCI-H1975 cell line that harbors the EGFR L858R T790M mutations (ATCC, CRL-5908); host or cells: NCI-H1975
T2 sequence (P00533 25-1210 T790M/L858R): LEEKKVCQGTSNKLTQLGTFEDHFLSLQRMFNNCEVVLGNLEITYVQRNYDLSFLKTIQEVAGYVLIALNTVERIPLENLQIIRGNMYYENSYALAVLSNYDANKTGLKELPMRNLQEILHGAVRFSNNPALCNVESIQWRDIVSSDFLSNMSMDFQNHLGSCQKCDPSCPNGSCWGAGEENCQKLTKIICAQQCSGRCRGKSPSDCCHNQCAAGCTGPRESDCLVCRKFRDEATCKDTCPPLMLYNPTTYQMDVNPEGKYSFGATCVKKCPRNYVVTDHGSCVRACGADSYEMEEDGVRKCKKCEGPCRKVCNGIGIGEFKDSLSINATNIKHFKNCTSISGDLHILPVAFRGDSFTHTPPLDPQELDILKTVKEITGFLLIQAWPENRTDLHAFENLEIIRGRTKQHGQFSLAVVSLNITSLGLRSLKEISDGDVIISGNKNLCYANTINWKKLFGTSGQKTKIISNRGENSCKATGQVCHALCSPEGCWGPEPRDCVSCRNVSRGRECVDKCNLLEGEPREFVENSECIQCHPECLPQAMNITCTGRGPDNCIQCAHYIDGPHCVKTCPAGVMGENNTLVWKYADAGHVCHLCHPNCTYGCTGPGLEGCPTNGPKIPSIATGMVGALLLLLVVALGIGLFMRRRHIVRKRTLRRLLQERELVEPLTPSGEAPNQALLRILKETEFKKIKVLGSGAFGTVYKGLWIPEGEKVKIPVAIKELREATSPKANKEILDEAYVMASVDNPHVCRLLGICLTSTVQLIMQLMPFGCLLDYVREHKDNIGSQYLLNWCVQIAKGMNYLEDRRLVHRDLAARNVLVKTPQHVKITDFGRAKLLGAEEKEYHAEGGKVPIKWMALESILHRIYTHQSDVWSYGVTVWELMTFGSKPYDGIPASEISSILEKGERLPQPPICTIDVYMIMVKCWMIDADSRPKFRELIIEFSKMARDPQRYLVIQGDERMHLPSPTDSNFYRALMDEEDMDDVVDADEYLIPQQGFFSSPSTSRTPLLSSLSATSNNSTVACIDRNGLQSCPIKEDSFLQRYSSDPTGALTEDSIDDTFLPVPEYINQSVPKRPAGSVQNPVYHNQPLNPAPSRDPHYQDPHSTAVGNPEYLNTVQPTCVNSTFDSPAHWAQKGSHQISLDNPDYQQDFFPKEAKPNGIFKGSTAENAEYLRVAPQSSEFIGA
Protocol: On the next day, the test compounds and DMSO control were added into H1975 cell plate followed by incubation at 37C/5% CO2 for 4-5 hours. […] Then 5 μL of a donor bead mix was added to each well followed by overnight incubation at room temperature in dark. On the next day, the plate was read at a compatible plate reader to obtain pEGFR signal. Percent of pEGFR inhibition was plotted against log concentration of compounds to generate IC50 values.

[3] = read-out: Ext pEGFR H1975 GMean IC50 (nM) Protocol: @Pharmaron AlphaLISA (Num)

Structure (SMILES)	IC50 [1]	IC50 [2, 3]	IC50 ([2]; Ext pEGFR H1975 GMean IC50 (nM) Protocol: @Pharmaron AlphaLISA (Num))
CC(C)c1cnc(N2CC(F)C2)c2cnc(Nc3ccnc(N4CC[C@@H](O)[C@@](C)(F)C4)n3)cc12 [Example 47, (3S,4R)-3-fluoro-1-(4-((8-(3-fluoroazetidin-1-yl)-5-isopropyl-2,7-naphthyridin-3-yl)amino)pyrimidin-2-yl)-3-methylpiperidin-4-ol]	< 15 nM	20 to 30 nM	
CC(C)c1cnc(N2CC(N=S(C)(C)=O)C2)c2cnc(Nc3ccnc(N4CC[C@@H](O)[C@@](C)(F)C4)n3)cc12 [Example 94, ((1-(6-((2-((3S,4R)-3-fluoro-4-hydroxy-3-methylpiperidin-1-yl)pyrimidin-4-yl)amino)-4-isopropyl-2,7-naphthyridin-1-yl)azetidin-3-yl)imino)dimethyl-l6-sulfanone]	< 15 nM	20 to 30 nM	
CC(C)c1cnc(N2C[C@@H](F)[C@@H](F)C2)c2cnc(Nc3ccnc(N4CC[C@@H](O)[C@@](C)(F)C4)n3)cc12 [Example 56, (3S,4R)-1-(4-((8-(cis-3,4-difluoropyrrolidin-1-yl)-5-isopropyl-2,7-naphthyridin-3-yl)amino)pyrimidin-2-yl)-3-fluoro-3-methylpiperidin-4-ol]	< 15 nM	> 50 nM	
C[C@@H]1CCN1c1ncc(-c2cccnc2F)c2cc(Nc3ccnc(N4CC[C@@H](O)[C@@H](F)C4)n3)ncc12 (single isomer, unassigned) [Example 161, (3S,4R)-3-fluoro-1-(4-((5-(2-fluoropyridin-3-yl)-8-((R)-2-methylazetidin-1-yl)-2,7-naphthyridin-3-yl)amino)pyrimidin-2-yl)piperidin-4-ol or (3S,4R)-3-fluoro-1-(4-((5-(2-fluoropyridin-3-yl)-8-((S)-2-methylazetidin-1-yl)-2,7-naphthyridin-3-yl)amino)pyrimidin-2-yl)piperidin-4-ol]	< 15 nM		30 to 50 nM
CO[C@H]1CCN(c2cc(Nc3cc4c(C(C)C)ccc(N5CC(n6ccnn6)C5)c4cn3)ccn2)C[C@@H]1O (single isomer, unassigned) [Example 127, (3S,4S)-1-(4-((8-(3-(1H-1,2,3-triazol-1-yl)azetidin-1-yl)-5-isopropylisoquinolin-3-yl)amino)pyridin-2-yl)-4-methoxypiperidin-3-ol or (3R,4R)-1-(4-((8-(3-(1H-1,2,3-triazol-1-yl)azetidin-1-yl)-5-isopropylisoquinolin-3-yl)amino)pyridin-2-yl)-4-methoxypiperidin-3-ol]	15 to 20 nM	10 to 20 nM	
Cc1nnc(-c2ncc(C(C)C)c3cc(Nc4ccnc(N5CC[C@@H](O)[C@@](C)(F)C5)n4)ncc23)o1 [Example 5, (3S,4R)-3-fluoro-1-(4-((5-isopropyl-8-(5-methyl-1,3,4-oxadiazol-2-yl)-2,7-naphthyridin-3-yl)amino)pyrimidin-2-yl)-3-methylpiperidin-4-ol]	< 15 nM	10 to 20 nM	
CC(C)c1cnc(N2CC[C@H](O)[C@H]2C)c2cnc(Nc3ccnc(N4CC[C@@H](O)[C@@](C)(F)C4)n3)cc12 [Example 81, (3S,4R)-3-fluoro-1-(4-((8-((2R,3S)-3-hydroxy-2-methylpyrrolidin-1-yl)-5-isopropyl-2,7-naphthyridin-3-yl)amino)pyrimidin-2-yl)-3-methylpiperidin-4-ol]	15 to 20 nM	> 50 nM	
COCCN1CC2(CCN2c2ncc(C(C)C)c3cc(Nc4ccnc(N5CC[C@@H](O)[C@@](C)(F)C5)n4)ncc23)C1 [Example 64, (3S,4R)-3-fluoro-1-(4-((5-isopropyl-8-(6-(2-methoxyethyl)-1,6-diazaspiro[3.3]heptan-1-yl)-2,7-naphthyridin-3-yl)amino)pyrimidin-2-yl)-3-methylpiperidin-4-ol]	< 15 nM	30 to 50 nM	
CCOc1cnc(N2CC[C@@H]2C)c2cnc(Nc3ccnc(N4CC[C@@H](O)[C@@](C)(F)C4)n3)cc12 (single isomer, unassigned) [Example 182, (3S,4R)-1-(4-((5-ethoxy-8-((S)-2-methylazetidin-1-yl)-2,7-naphthyridin-3-yl)amino)pyrimidin-2-yl)-3-fluoro-3-methylpiperidin-4-ol or (3S,4R)-1-(4-((5-ethoxy-8-((R)-2-methylazetidin-1-yl)-2,7-naphthyridin-3-yl)amino)pyrimidin-2-yl)-3-fluoro-3-methylpiperidin-4-ol]	30 to 100 nM	> 50 nM	
CC(C)c1ccc([C@H]2C[C@H](CS(C)(=O)=O)C2)c2cnc(Nc3ccnc(N4CC[C@@H](O)[C@@](C)(F)C4)n3)cc12 [Example 1, (3S,4R)-3-fluoro-1-(4-((5-isopropyl-8-((1r,3S)-3-((methylsulfonyl)methyl)cyclobutyl)isoquinolin-3-yl)amino)pyrimidin-2-yl)-3-methylpiperidin-4-ol]	< 15 nM	< 10 nM	
CO[C@@H]1CCN(c2nccc(Nc3cc4c(C(C)C)cnc(N5CC(F)C5)c4cn3)n2)C[C@@H]1O (single isomer, unassigned) [Example 118, (3S,4R)-1-(4-((8-(3-fluoroazetidin-1-yl)-5-isopropyl-2,7-naphthyridin-3-yl)amino)pyrimidin-2-yl)-4-methoxypiperidin-3-ol or (3R,4S)-1-(4-((8-(3-fluoroazetidin-1-yl)-5-isopropyl-2,7-naphthyridin-3-yl)amino)pyrimidin-2-yl)-4-methoxypiperidin-3-ol]	20 to 30 nM	> 50 nM	
CC(C)c1cnc(N2CC[C@H]2CO)c2cnc(Nc3ccnc(N4CC[C@@H](O)[C@@](C)(F)C4)n3)cc12 [Example 52, (3S,4R)-3-fluoro-1-(4-((8-((S)-2-(hydroxymethyl)azetidin-1-yl)-5-isopropyl-2,7-naphthyridin-3-yl)amino)pyrimidin-2-yl)-3-methylpiperidin-4-ol]	< 15 nM	< 10 nM	
CCc1cnc(N2CC[C@@H]2C)c2cnc(Nc3ccnc(N4CC[C@@H](O)[C@@](C)(F)C4)n3)cc12 (single isomer, unassigned) [Example 181, (3S,4R)-1-(4-((5-ethyl-8-((S)-2-methylazetidin-1-yl)-2,7-naphthyridin-3-yl)amino)pyrimidin-2-yl)-3-fluoro-3-methylpiperidin-4-ol or (3S,4R)-1-(4-((5-ethyl-8-((R)-2-methylazetidin-1-yl)-2,7-naphthyridin-3-yl)amino)pyrimidin-2-yl)-3-fluoro-3-methylpiperidin-4-ol]	15 to 20 nM	30 to 50 nM	
CC(C)c1cnc(N2C[C@H](O)[C@H]2C)c2cnc(Nc3ccnc(N4CCC(C)(O)CC4)n3)cc12 [Example 128, 1-(4-((8-((2R,3S)-3-hydroxy-2-methylazetidin-1-yl)-5-isopropyl-2,7-naphthyridin-3-yl)amino)pyrimidin-2-yl)-4-methylpiperidin-4-ol]	< 15 nM	> 50 nM	
CC(C)c1ncc(N2CC[C@H]2C)c2cnc(Nc3ccnc(N4CC[C@@H](O)[C@@](C)(F)C4)n3)cc12 [Example 106, (3S,4R)-3-fluoro-1-(4-((5-isopropyl-8-((R)-2-methylazetidin-1-yl)-2,6-naphthyridin-3-yl)amino)pyrimidin-2-yl)-3-methylpiperidin-4-ol]	< 15 nM	20 to 30 nM	
CC(C)c1cnc(N2CCC23CCN(C)CC3)c2cnc(Nc3ccnc(N4CC[C@@H](O)[C@@](C)(F)C4)n3)cc12 [Example 196, (3S,4R)-3-fluoro-1-(4-((5-isopropyl-8-(7-methyl-1,7-diazaspiro[3.5]nonan-1-yl)-2,7-naphthyridin-3-yl)amino)pyrimidin-2-yl)-3-methylpiperidin-4-ol]	< 15 nM	10 to 20 nM	
CC(C)c1cnc(N2CC3(CCS3(=O)=O)C2)c2cnc(Nc3ccnc(N4CC[C@@](C)(O)[C@@H](F)C4)n3)cc12 (single isomer, unassigned) [Example 174, 6-(6-((2-((3S,4R)-3-fluoro-4-hydroxy-4-methylpiperidin-1-yl)pyrimidin-4-yl)amino)-4-isopropyl-2,7-naphthyridin-1-yl)-1-thia-6-azaspiro[3.3]heptane 1,1-dioxide or 6-(6-((2-((3R,4S)-3-fluoro-4-hydroxy-4-methylpiperidin-1-yl)pyrimidin-4-yl)amino)-4-isopropyl-2,7-naphthyridin-1-yl)-1-thia-6-azaspiro[3.3]heptane 1,1-dioxide]	20 to 30 nM	> 50 nM	
Cc1nc(-c2ncc(C(C)C)c3cc(Nc4ccnc(N5CC[C@@H](O)[C@@](C)(F)C5)n4)ncc23)n[nH]1 [Example 24, (3S,4R)-3-fluoro-1-(4-((5-isopropyl-8-(5-methyl-1H-1,2,4-triazol-3-yl)-2,7-naphthyridin-3-yl)amino)pyrimidin-2-yl)-3-methylpiperidin-4-ol]	< 15 nM	30 to 50 nM	
CC(C)c1cnc(N2CC(S(C)(=O)=O)C2)c2cnc(Nc3ccnc(N4CC[C@@H](O)[C@@](C)(F)C4)n3)cc12 [Example 69, (3S,4R)-3-fluoro-1-(4-((5-isopropyl-8-(3-(methylsulfonyl)azetidin-1-yl)-2,7-naphthyridin-3-yl)amino)pyrimidin-2-yl)-3-methylpiperidin-4-ol]	< 15 nM	30 to 50 nM	
